We go through six compounds from US20250376471A1, “CRYSTALLINE FORMS OF 2-[3-[4-AMINO-3-(2-FLUORO-4-PHENOXY-PHENYL)PYRAZOLO[3,4-D]PYRIMIDIN-1-YL]PIPERIDINE-1-CARBONYL]-4-METHYL-4-[4-(OXETAN-3-YL)PIPERAZIN-1-YL]PENT-2-ENENITRILE” (Principia Biopharma Inc., priority 2022, published 2025).

Values after ≈ are worked out from the molar mass of the structure shown. Values joined by “and” are separate entries in the source; they are usually repeats but may differ in a detail not shown here. Identical values can stand only once.

Series [1] is described as follows: Comparative solubility in aqueous buffers (HPLC). The class given is physicochemical. The method, then:
(§1) Using the stock solution, a dilution series for the purpose of HPLC quantitation was generated according to the following Table 8.
Next, the second step of this modified procedure involved adding a buffer (5 mL) to the vial under stirring followed by measuring the pH of the resulting suspension. In case the pH drifted by more than 0.1 unit from the target pH, 10 μL aliquots of 1M NaOH (aq.) were used to readjust the pH to the original value. […] As above in 9.2, the samples were filtered through a 0.2 μm filter, and the resulting solution was appropriately diluted to fall within the calibrated concentration range on HPLC. The sampling was repeated in an identical fashion after 3 hr and 24 hr and after the last sample was taken, the pH was recorded again. The dissolved sample was determined by converting the recorded area on HPLC to concentration in mg/mL using the established calibration equation.

Series [2] can be described thus: Comparative grinding study (XRPD pre- and post-grinding). The settings on record: 40 mg ground at 30 Hz for 30 min with steel ball bearing. The class given is physicochemical. The method, then: The samples were each ground at 30 Hz for 30 min, then reanalyzed by XRPD.
Series [3] can be described thus: Visual solubility of Form B crystal in common solvents at RT. The class given is physicochemical. The settings on record: organic solvent or mixture, thermodynamic from solid, visually estimated. An excerpt: The solubility was visually estimated in 12 common solvents at RT.
A short description of series [4]: Comparative solubility in Milli-Q purified water (HPLC). The settings on record: for pH: water, 24 hr. How it is done: as §1
First, a quantity of test sample was placed in a 2-dram vial equipped with stir bar. […] In the second step, Milli-Q water was added to the vial under stirring followed by measuring the pH of the resulting suspension/solution. […] In each case, the sample was filtered through a 0.2 μm filter. The resulting solution was appropriately diluted to fall within the calibrated concentration range on HPLC. The sampling was repeated in identical fashion after 3 hr and 24 hr. After the last sample was taken, the pH was recorded again. The dissolved sample was determined by converting the recorded area on HPLC to concentration in mg/mL using the established calibration equation.

The nature of series [5]: Static storage analysis (XRPD pre- and post-storage). The settings on record: stored for one week at 25° C. and 40° C. The class given is physicochemical. How it is done: Samples of methyl paraben co-crystalline form of Compound (I) (Example 10), after drying in a vacuum oven were stored for one week at 25° C. and 40° C.
Series [6] is described as follows: Hygroscopicity (GVS analysis) and solid-state properties of methyl paraben co-crystal. The class given is physicochemical. An excerpt: The co-crystal is also readily prepared from anti-solvent addition and generates a good yield.
Series [7] is described as follows: Solubility of methyl paraben co-crystal in pH 4.5 and 6.8 buffer (HPLC). The class given is physicochemical. How it is done:
The sample was suspended in 1.5 mL media for a maximum anticipated concentration of Ca. […] The resulting suspensions were then shaken at 25° C./750 rpm for 24 hr. After 1 hr, 3 hr and 24 hr of equilibration, 0.5 mL of sample was aliquoted, the appearance was noted, and the pH of the saturated solution was measured. Samples were then centrifuged at 13,400 rpm for 2 min. Supernatant was used for HPLC analysis. Samples suspended in pH 4.5 buffer were diluted 1:1 (1- and 3-hr samples) and 1:8 (24 hr samples) with pH 4.5 buffer. Samples suspended in pH 6.8 buffer were analyzed undiluted. […] Different volumes of the standard diluted and undiluted sample solutions were injected.

Series [8] can be described thus: Compression study (XRPD pre- and post-compression). The settings on record: 6 mm recess disc, 100 kg of pressure for 2 min. It is filed as physicochemical. How it is done: The methyl paraben co-crystalline form of Compound (I) after drying in a vacuum oven was compressed into a 6 mm recess disc under 100 kg of pressure for 2 min.
Where [9] appears, read: pH 4.5 buffer, 1 hour, 25° C., single sample.

In general, solubility refers to the concentration that dissolves in the medium under given conditions. `CC(C)(C=C(C#N)C(=O)N1CCCC(n2nc(-c3ccc(Oc4ccccc4)cc3F)c3c(N)ncnc32)C1)N1CCN(C2COC2)CC1` (centres unmarked) [Compound (I) Form B, 2-[3-[4-amino-3-(2-fluoro-4-phenoxy-phenyl)pyrazolo[3,4-d]pyrimidin-1-yl]piperidine-1-carbonyl]-4-methyl-4-[4-(oxetan-3-yl)piperazin-1-yl]pent-2-enenitrile]: the pH is reported as 4.5 in series [1] (50 mM Acetate, 0 hr); 4.5 in series [1] (50 mM Acetate, 24 hr); 7.8 in series [4]. Further, the solubility at 1 h in series [1] (50 mM acetate buffer, pH 4.5, aqueous buffer, thermodynamic from solid, 50 mM Acetate, 1 hr) is 1.7 mg/mL (≈ 2.55 mM). The “solid form after grinding (XRPD)” value in series [2] (listed as Form B crystalline form of Compound (I)) is “became amorphous after grinding”. The solubility at 15 min was 20 to 100 mg/mL (≈ 30 to 150 mM) in series [3] (4-Methyl-2-pentanone (MIBK)); above 100 mg/mL in series [3] (Acetone); 20 to 100 mg/mL (≈ 30 to 150 mM) in series [3] (Acetonitrile (MeCN)); below 20 mg/mL in series [3] (Cyclohexane); 20 to 100 mg/mL (≈ 30 to 150 mM) in series [3] (Cyclohexanone); above 100 mg/mL in series [3] (Dichloromethane (DCM)). The solubility at 15 min in series [3] (Dimethyl carbonate (DMC)) is 20 to 100 mg/mL (≈ 30 to 150 mM); in series [3] (Ethyl acetate (EtOAc)) it was 20 to 100 mg/mL (≈ 30 to 150 mM); in series [3] (Isopropyl ether (IPE)), below 20 mg/mL; in series [3] (Tetrahydrofuran (THF)), above 100 mg/mL; in series [3] (Toluene), below 20 mg/mL; in series [3] (t-Butyl Methyl Ether (MTBE)), below 20 mg/mL.
Regarding `CC(C)(C=C(C#N)C(=O)N1CCCC(n2nc(-c3ccc(Oc4ccccc4)cc3F)c3c(N)ncnc32)C1)N1CCN(C2COC2)CC1` (centres unmarked) [Compound (I) amorphous, 2-[3-[4-amino-3-(2-fluoro-4-phenoxy-phenyl)pyrazolo[3,4-d]pyrimidin-1-yl]piperidine-1-carbonyl]-4-methyl-4-[4-(oxetan-3-yl)piperazin-1-yl]pent-2-enenitrile], the pH is 4.5 in series [1] (50 mM Acetate, 0 hr); 4.5 in series [1] (50 mM Acetate, 24 hr); 8.3 in series [4].
Take `CC(C)(C=C(C#N)C(=O)N1CCCC(n2nc(-c3ccc(Oc4ccccc4)cc3F)c3c(N)ncnc32)C1)N1CCN(C2COC2)CC1.Cl` (centres unmarked) [HCl salt, 2-[3-[4-amino-3-(2-fluoro-4-phenoxy-phenyl)pyrazolo[3,4-d]pyrimidin-1-yl]piperidine-1-carbonyl]-4-methyl-4-[4-(oxetan-3-yl)piperazin-1-yl]pent-2-enenitrile: HCl crystalline salt Form A]: the pH is 4.5 in series [1] (50 mM Acetate, 0 hr); 4.4 in series [1] (50 mM Acetate, 24 hr); 4.0 in series [4]. Further, the “solubility as compared with amorphous form and Compound (I) Form B” value in series [4] (Example 9, FIGS. 24A-C, water and buffers) was “significantly enhanced solubility”.
`CC(C)(C=C(C#N)C(=O)N1CCCC(n2nc(-c3ccc(Oc4ccccc4)cc3F)c3c(N)ncnc32)C1)N1CCN(C2COC2)CC1.O=C(O)/C=C\C(=O)O` (centres unmarked) [Maleate, 2-[3-[4-amino-3-(2-fluoro-4-phenoxy-phenyl)pyrazolo[3,4-d]pyrimidin-1-yl]piperidine-1-carbonyl]-4-methyl-4-[4-(oxetan-3-yl)piperazin-1-yl]pent-2-enenitrile: maleate crystalline salt Form A]: the pH in series [1] (50 mM Acetate, 0 hr) is 4.5; in series [1] (50 mM Acetate, 24 hr), 4.0; in series [1] (100 mM Acetate, 0 hr), 4.5; in series [1] (100 mM Acetate, 24 hr) it was 4.5; in series [4] it was 3.5.
As usually defined, the Solubility is the dissolved amount per volume that the medium holds. High values mean a readily soluble substance, low ones a poorly soluble substance. On to `CC(C)(C=C(C#N)C(=O)N1CCCC(n2nc(-c3ccc(Oc4ccccc4)cc3F)c3c(N)ncnc32)C1)N1CCN(C2COC2)CC1` (centres unmarked) [Methyl paraben co-crystal, 2-[3-[4-amino-3-(2-fluoro-4-phenoxy-phenyl)pyrazolo[3,4-d]pyrimidin-1-yl]piperidine-1-carbonyl]-4-methyl-4-[4-(oxetan-3-yl)piperazin-1-yl]pent-2-enenitrile], for which the “solid form after storage (XRPD)” value in series [5] is “retained its crystalline structure”. Also, in series [6] (between 0 and 90% RH), the “water absorbed (hygroscopicity)” value amounted to 2.3 % w/w. Further, in series [6] (solid form stability), the “XRPD pattern after GVS analysis, static storage conditions, grinding and compression studies, and kinetic solubility analysis” value is given as “remained the same XRPD pattern”. The “solid form after grinding (XRPD)” value in series [2] was “retained its co-crystalline structure pattern with only a limited reduction in overall crystallinity”. The same compound registered a solubility at 3 h in series [7] (pH 4.5 buffer, 25 °C, pH 4.5, aqueous buffer, thermodynamic from solid, 3 hour, single sample) of 0.98 mg/mL. Moreover, the solubility at 1 h in series [7] (pH 4.5 buffer, 25 °C, pH 4.5, aqueous buffer, thermodynamic from solid, pH 4.5 buffer, 1 hour, 25° C., single sample, read-out: Solubility) turned out to be 0.65 mg/mL; in series [7] (pH 4.5 buffer, 25 °C, pH 4.5, aqueous buffer, thermodynamic from solid, pH 4.5 buffer, 1 hour, 25° C., read-out: Average Solubility) it was 0.65 mg/mL. The compound also yielded a Solubility in series [7] (setting [9]) of 0.64 mg/mL. Besides, the pH is 4.6 in series [7] (setting [9]); 4.7 and 4.6 in series [7] (pH 4.5 buffer, 3 hour, 25° C., single sample); 4.7 in series [7] (pH 4.5 buffer, 24 hour, 25° C., single sample); 6.8 in series [7] (pH 6.8 buffer, 1 hour, 25° C., single sample); 6.8 in series [7] (pH 6.8 buffer, 3 hour, 25° C., single sample); 6.9 and 6.8 in series [7] (pH 6.8 buffer, 24 hour, 25° C., single sample). For the same compound, the “XRPD pattern post-solubility analysis” value in series [7] (solid form stability after solubility test) is “no change in the pattern”. For the same compound, the “solid form after drying and compression (XRPD)” value in series [8] is given as “retained its co-crystalline structure pattern with only a limited reduction in overall crystallinity”.
`CC(C)(C=C(C#N)C(=O)N1CCCC(n2nc(-c3ccc(Oc4ccccc4)cc3F)c3c(N)ncnc32)C1)N1CCN(C2COC2)CC1.O=C(O)C(=O)O` (centres unmarked) [Oxalate salt, 2-[3-[4-amino-3-(2-fluoro-4-phenoxy-phenyl)pyrazolo[3,4-d]pyrimidin-1-yl]piperidine-1-carbonyl]-4-methyl-4-[4-(oxetan-3-yl)piperazin-1-yl]pent-2-enenitrile: oxalate crystalline salt hydrate Form A]: the pH in series [1] (50 mM Acetate, 0 hr) turned out to be 4.5; in series [1] (50 mM Acetate, 24 hr), 4.27; in series [1] (100 mM Acetate, 0 hr) it was 4.5; in series [1] (100 mM Acetate, 24 hr), 4.5; in series [4] it was 2.9.
